From patent publication US10053463B2 (Janssen Pharmaceutica NV, priority 2013, dated 2018)

Legend:
P2X7 [1] = target: T1, P2X7 (Homo sapiens (Human), UniProt Q99572); assay: P2X7 antagonism in human peripheral blood mononuclear cells (PBMCs), IL-1β release; format: cell-based; settings: 10 μM compound; for remaining activity at 10 µM: P2X7, Table 3 (additional runs), read-out: PBMC 10 μM (% control)
Procedure, shortened: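 Ficoll-isolated human PBMCs primed with LPS (30 ng/ml) for 1 h, treated with compound for 30 min, then stimulated with 0.5 mM Bz-ATP for 1.5 h. Supernatant IL-1β measured by ELISA as % of LPS+Bz-ATP minus LPS-only release; IC50 from concentration–response of triplicate means.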

P2X7 [2] = target: T1, P2X7; assay: Radioligand binding, human P2X7-1321N1 cell membranes, tracer tritiated A-804598; settings: Table 3 (additional runs)
Description: P2X7 Antagonism in Recombinant Human P2X7 Cells or Recombinant Rat P2X7 Cells: (a) Ca^2+ Flux and (b) Radioligand Binding
(b) Radioligand Binding: human or rat P2X7-1321N1 cells were collected and frozen @−80° C. On the day of the experiment, cell membrane preparations were made according to standard published methods. The total assay volume was 100 μl:10 μl compound (10×)+(b) 40 μl tracer (2.5×)+50 μl membrane (2×). The tracer used for the assay was tritiated A-804598. The compound can be prepared as described in the literature. (Donnelly-Roberts, D. Neuropharmacology 2008, 56 (1), 223-229.) Compounds, tracer and membranes were incubated for 1 hour @ 4° C. The assay was terminated by filtration (GF/B filters pre-soaked with 0.3% PEI) and washed with washing buffer (Tris-HCl 50 mM). The IC50 generated in the binding assay was corrected for tracer concentration and affinity of the tracer to derive at the affinity (K) of the test compounds. […] Data are analyzed and graphed on Graphpad Prism 5. For analysis, each concentration point is averaged from triplicate values and the averaged values are plotted on Graphpad Prism.

T1 sequence (Q99572 whole entry): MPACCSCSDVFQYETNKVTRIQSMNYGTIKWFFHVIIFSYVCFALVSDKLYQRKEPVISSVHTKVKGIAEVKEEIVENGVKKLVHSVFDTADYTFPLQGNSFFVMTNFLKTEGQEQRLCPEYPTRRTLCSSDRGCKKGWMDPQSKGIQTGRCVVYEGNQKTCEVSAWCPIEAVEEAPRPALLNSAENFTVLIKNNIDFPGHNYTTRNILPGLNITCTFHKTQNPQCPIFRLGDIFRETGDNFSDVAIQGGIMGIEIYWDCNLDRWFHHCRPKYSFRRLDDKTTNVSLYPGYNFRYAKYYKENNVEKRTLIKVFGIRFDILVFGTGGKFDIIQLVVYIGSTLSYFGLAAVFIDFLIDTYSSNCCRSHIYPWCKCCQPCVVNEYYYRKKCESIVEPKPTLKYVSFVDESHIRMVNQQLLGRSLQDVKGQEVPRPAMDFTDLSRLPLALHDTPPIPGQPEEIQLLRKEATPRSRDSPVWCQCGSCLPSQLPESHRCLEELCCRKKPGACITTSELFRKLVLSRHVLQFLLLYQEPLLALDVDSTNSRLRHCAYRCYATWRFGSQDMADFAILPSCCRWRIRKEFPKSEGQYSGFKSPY

remaining activity at 10 µM (P2X7 [1]) [%]	Ki (P2X7 [2]) [µM]	SMILES	PBMC 10 μM (% control) (P2X7 [1]; Table 2, IL-1β release, LPS + 0.5 mM Bz-ATP)
28.3		C[C@H]1Cn2c(nnc2-c2cnccn2)C(=O)N1Cc1c(Cl)cccc1Cl [Example 86, (6S)-7-(2,6-Dichlorobenzyl)-6-methyl-3-pyrazin-2-yl-6,7-dihydro[1,2,4]triazolo[4,3-a]pyrazin-8(5H)-one]	
27		Cc1cccc(C)c1CN1C(=O)c2nnc(-c3cnccn3)n2C[C@@H]1C [Example 87, (6S)-7-(2,6-Dimethylbenzyl)-6-methyl-3-pyrazin-2-yl-6,7-dihydro[1,2,4]triazolo[4,3-a]pyrazin-8(5H)-one]	
29.9		C[C@H]1Cn2c(nnc2-c2cnccn2)C(=O)N1Cc1cccc(C(F)(F)F)c1 [Example 88, (6S)-6-Methyl-3-pyrazin-2-yl-7-[3-(trifluoromethyl)benzyl]-6,7-dihydro[1,2,4]triazolo[4,3-a]pyrazin-8(5H)-one]	
30.7		C[C@H]1Cn2c(nnc2-c2cnccn2)C(=O)N1Cc1ccccc1[N+](=O)[O-] [Example 89, (6S)-6-Methyl-7-(2-nitrobenzyl)-3-pyrazin-2-yl-6,7-dihydro[1,2,4]triazolo[4,3-a]pyrazin-8(5H)-one]	
24.4		C[C@H]1Cn2c(nnc2-c2cnccn2)C(=O)N1Cc1cc([N+](=O)[O-])ccc1Cl [Example 90, (6S)-7-(2-Chloro-5-nitrobenzyl)-6-methyl-3-pyrazin-2-yl-6,7-dihydro[1,2,4]triazolo[4,3-a]pyrazin-8(5H)-one]	
11.6		C[C@H]1Cn2c(nnc2-c2cnccn2)C(=O)N1Cc1cc(N)ccc1Cl [Example 91, (6S)-7-(5-Amino-2-chlorobenzyl)-6-methyl-3-pyrazin-2-yl-6,7-dihydro[1,2,4]triazolo[4,3-a]pyrazin-8(5H)-one]	
-1		CC(c1ccccc1)N1C(=O)c2nnc(-c3cnccn3)n2C[C@@H]1C (stereo partly drawn) [Example 92, (6S)-6-Methyl-7-(1-phenylethyl)-3-pyrazin-2-yl-6,7-dihydro[1,2,4]triazolo[4,3-a]pyrazin-8(5H)-one]	
34.3	0.0079	C[C@H]1Cn2c(-c3cnccn3)nnc2-c2nnc(-c3cccc(C(F)(F)F)c3Cl)n21 [Example 99, (5S)-3-[2-Chloro-3-(trifluoromethyl)phenyl]-5-methyl-8-pyrazin-2-yl-5,6-dihydrobis[1,2,4]triazolo[4,3-a:3′,4′-c]pyrazine]	
17.2	0.02	C[C@H]1Cn2c(-c3cnccn3)nnc2-c2nnc(-c3cccc(Cl)c3Cl)n21 [Example 100, (5S)-3-(2,3-Dichlorophenyl)-5-methyl-8-pyrazin-2-yl-5,6-dihydrobis[1,2,4]triazolo[4,3-a:3′,4′-c]pyrazine]	
1.2	0.0398	C[C@H]1Cn2c(-c3ccc(F)cc3)nnc2-c2nnc(-c3cccc(C(F)(F)F)c3Cl)n21 [Example 101, (5S)-3-[2-Chloro-3-(trifluoromethyl)phenyl]-8-(4-fluorophenyl)-5-methyl-5,6-dihydrobis[1,2,4]triazolo[4,3-a:3′,4′-c]pyrazine]	
1.4		C[C@H]1Cn2c(-c3ccc(F)cn3)nnc2-c2nnc(-c3cccc(C(F)(F)F)c3Cl)n21 [Example 102, (5S)-3-[2-Chloro-3-(trifluoromethyl)phenyl]-8-(5-fluoropyridin-2-yl)-5-methyl-5,6-dihydrobis[1,2,4]triazolo[4,3-a:3′,4′-c]pyrazine]	
3.3	0.0224	C[C@H]1Cn2c(-c3cc[nH]n3)nnc2-c2nnc(-c3cccc(C(F)(F)F)c3Cl)n21 [Example 103, (5S)-3-[2-Chloro-3-(trifluoromethyl)phenyl]-5-methyl-8-(1H-pyrazol-3-yl)-5,6-dihydrobis[1,2,4]triazolo[4,3-a:3′,4′-c]pyrazine]	
4.3		C[C@H]1Cn2c(-c3cocn3)nnc2-c2nnc(-c3cccc(C(F)(F)F)c3Cl)n21 [Example 104, (5S)-3-[2-Chloro-3-(trifluoromethyl)phenyl]-5-methyl-8-(1,3-oxazol-4-yl)-5,6-dihydrobis[1,2,4]triazolo[4,3-a:3′,4′-c]pyrazine]	
0.2	0.004	C[C@H]1Cn2c(-c3ncccn3)nnc2-c2nnc(-c3cccc(C(F)(F)F)c3Cl)n21 [Example 105, (5S)-3-[2-Chloro-3-(trifluoromethyl)phenyl]-5-methyl-8-pyrimidin-2-yl-5,6-dihydrobis[1,2,4]triazolo[4,3-a:3′,4′-c]pyrazine]	
1.9	0.0126	C[C@H]1Cn2c(-c3nccs3)nnc2-c2nnc(-c3cccc(C(F)(F)F)c3Cl)n21 [Example 106, (5S)-3-[2-Chloro-3-(trifluoromethyl)phenyl]-5-methyl-8-(1,3-thiazol-2-yl)-5,6-dihydrobis[1,2,4]triazolo[4,3-a:3′,4′-c]pyrazine]	
40.2		C[C@H]1Cn2cnnc2-c2nnc(-c3cccc(C(F)(F)F)c3Cl)n21 [Example 107, (5S)-3-[2-Chloro-3-(trifluoromethyl)phenyl]-5-methyl-5,6-dihydrobis[1,2,4]triazolo[4,3-a:3′,4′-c]pyrazine]	
-0.5		C[C@H]1Cn2c(-c3cccnn3)nnc2-c2nnc(-c3cccc(C(F)(F)F)c3Cl)n21 [Example 108, (5S)-3-[2-Chloro-3-(trifluoromethyl)phenyl]-5-methyl-8-pyridazin-3-yl-5,6-dihydrobis[1,2,4]triazolo[4,3-a:3′,4′-c]pyrazine]	
4.4		C[C@H]1Cn2c(-c3cnn(C)c3)nnc2-c2nnc(-c3cccc(C(F)(F)F)c3Cl)n21 [Example 114, (5S)-3-[2-Chloro-3-(trifluoromethyl)phenyl]-5-methyl-8-(1-methyl-1H-pyrazol-4-yl)-5,6-dihydrobis[1,2,4]triazolo[4,3-a:3′,4′-c]pyrazine]	
6.2		CCc1nnc2n1C[C@H](C)n1c(-c3cccc(C(F)(F)F)c3Cl)nnc1-2 [Example 116, (S)-3-[2-chloro-3-(trifluoromethyl)phenyl]-8-ethyl-5-methyl-5,6-dihydrobis[1,2,4]triazolo[4,3-a:3′,4′-c]pyrazine]	
25.9		C[C@H]1Cn2c(-c3cccc(C(F)(F)F)n3)nnc2-c2nnc(-c3cccc(C(F)(F)F)c3Cl)n21 [Example 117, (S)-3-[2-chloro-3-(trifluoromethyl)phenyl]-5-methyl-8-(6-(trifluoromethyl)pyridine-2-yl)-5,6-dihydrobis[1,2,4]triazolo[4,3-a:3′,4′-c]pyrazine]	
9.5		C[C@H]1Cn2c(-c3cccnc3)nnc2-c2nnc(-c3cccc(C(F)(F)F)c3Cl)n21 [Example 122, (S)-3-[2-chloro-3-(trifluoromethyl)phenyl]-5-methyl-8-(pyridin-3-yl)-5,6-dihydrobis[1,2,4]triazolo[4,3-a:3′,4′-c]pyrazine]	
2.4		Cc1cncc(-c2nnc3n2C[C@H](C)n2c(-c4cccc(C(F)(F)F)c4Cl)nnc2-3)c1 [Example 123, (S)-3-(2-chloro-3-(trifluoromethyl)phenyl)-5-methyl-8-(5-methylpyridin-3-yl)-5,6-dihydrobis([1,2,4]triazolo)[4,3-a:3′,4′-c]pyrazine]	

SMILES	remaining activity at 10 µM (P2X7 [1]) [%]	Ki (P2X7 [2]) [µM]	PBMC 10 μM (% control) (P2X7 [1]; Table 2, IL-1β release, LPS + 0.5 mM Bz-ATP)
CC(c1cccc(C(F)(F)F)c1Cl)N1C(=O)c2nnc(-c3cnccn3)n2C[C@@H]1C (stereo partly drawn) [Example 93]	4.5		4.5
